Legend:
[1] = biological target: T1, PR (progesterone receptor) (Homo sapiens, UniProt P06401); test: Relative binding activity (RBA) at PR, progesterone = 100%; settings: by Kaufmann
T1 sequence (P06401 1-933): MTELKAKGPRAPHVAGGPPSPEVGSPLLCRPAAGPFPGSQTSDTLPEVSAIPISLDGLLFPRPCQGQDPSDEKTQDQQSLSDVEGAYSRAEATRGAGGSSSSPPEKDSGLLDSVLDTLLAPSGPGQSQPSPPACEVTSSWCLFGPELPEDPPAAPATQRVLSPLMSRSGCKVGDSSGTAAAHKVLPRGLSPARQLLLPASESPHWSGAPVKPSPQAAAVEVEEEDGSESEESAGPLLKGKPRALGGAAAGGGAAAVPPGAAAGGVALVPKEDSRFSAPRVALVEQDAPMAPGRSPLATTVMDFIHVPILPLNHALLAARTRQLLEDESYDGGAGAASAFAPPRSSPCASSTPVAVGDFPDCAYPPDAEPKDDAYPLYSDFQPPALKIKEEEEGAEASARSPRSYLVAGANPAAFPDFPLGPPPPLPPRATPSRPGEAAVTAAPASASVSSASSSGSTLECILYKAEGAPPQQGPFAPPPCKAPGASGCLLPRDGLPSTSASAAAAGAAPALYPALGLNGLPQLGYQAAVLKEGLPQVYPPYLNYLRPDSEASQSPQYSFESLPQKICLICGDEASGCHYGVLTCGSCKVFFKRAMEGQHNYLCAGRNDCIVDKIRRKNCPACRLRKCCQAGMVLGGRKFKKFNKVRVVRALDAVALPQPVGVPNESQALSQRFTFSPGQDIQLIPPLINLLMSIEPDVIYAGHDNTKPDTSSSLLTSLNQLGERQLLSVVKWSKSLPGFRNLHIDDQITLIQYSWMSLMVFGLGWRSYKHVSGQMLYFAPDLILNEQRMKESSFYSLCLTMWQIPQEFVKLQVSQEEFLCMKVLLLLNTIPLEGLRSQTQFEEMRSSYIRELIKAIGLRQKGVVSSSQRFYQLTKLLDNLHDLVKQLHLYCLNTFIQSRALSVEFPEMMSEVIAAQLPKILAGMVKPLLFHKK

[2] = biological target: T2, GR (Homo sapiens, UniProt P04150); test: Relative binding activity (RBA) at GR, dexamethasone = 100%; settings: by Kaufmann
T2 sequence (P04150 1-777): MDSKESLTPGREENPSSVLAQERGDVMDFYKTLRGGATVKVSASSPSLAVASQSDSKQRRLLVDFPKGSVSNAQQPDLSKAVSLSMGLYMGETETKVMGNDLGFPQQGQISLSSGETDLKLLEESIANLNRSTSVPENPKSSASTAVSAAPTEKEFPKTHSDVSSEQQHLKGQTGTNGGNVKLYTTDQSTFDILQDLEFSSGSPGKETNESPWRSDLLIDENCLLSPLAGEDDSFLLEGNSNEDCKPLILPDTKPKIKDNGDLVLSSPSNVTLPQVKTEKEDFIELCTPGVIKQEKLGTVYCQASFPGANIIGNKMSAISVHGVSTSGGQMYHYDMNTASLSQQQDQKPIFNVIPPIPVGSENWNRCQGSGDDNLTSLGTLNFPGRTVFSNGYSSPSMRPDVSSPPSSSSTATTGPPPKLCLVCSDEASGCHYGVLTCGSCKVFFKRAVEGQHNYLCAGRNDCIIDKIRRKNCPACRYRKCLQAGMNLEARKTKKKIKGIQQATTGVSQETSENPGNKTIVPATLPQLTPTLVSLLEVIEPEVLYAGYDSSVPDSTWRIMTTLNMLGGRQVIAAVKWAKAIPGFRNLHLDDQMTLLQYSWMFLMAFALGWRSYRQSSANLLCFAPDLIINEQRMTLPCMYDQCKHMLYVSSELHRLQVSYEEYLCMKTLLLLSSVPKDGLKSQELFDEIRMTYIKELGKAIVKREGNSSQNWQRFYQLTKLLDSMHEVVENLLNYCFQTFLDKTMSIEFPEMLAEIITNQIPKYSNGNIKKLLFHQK

[3] = tested on: pregnant rats; test: Abortifacient activity in pregnant rats; type: in vivo, rat; settings: s.c.; treatment days 5-7 of pregnancy, autopsy day 9; * SAS, probit procedure
From the text: (§1) The guinea pig is considered as relevant model of human gestation and parturition (Elger W, Fähnrich M, Beier S, Quing S S, Chwalisz K (1987). Endometrial and myometrial effects of progesterone antagonists in pregnant guinea pigs. Am J Obstet Gynecol 157: 1065-1074; Elger W, Neef G, Beier S, Fähnrich M, Gründel M, Heermann J, Malmendier A, Laurent D, Puri C P, Singh M M, Hasan S H, Becker H (1992). Evaluation of antifertility activities of antigestagens in animal model. In: Puri C P and Van Look P F A (eds), Current Concepts in Fertility Regulation and Reproduction. Wiley Eastern Limited, New Delhi, pp. 303-328; Elger W, Faehnrich M, Beier S, Qing S S, Chwalisz K (1986). Mechanism of action of progesterone antagonists in pregnant guinea pigs. Contraception 6: 47-62; Elger W, Chwalisz K, Faehnrich M, Hasan S H, Laurent D, Beier S, Ottow E, Neef G, Garfield R E (1990). Studies on labor-conditioning and labor-inducing effects of antiprogesterones in animal model. In: Garfield R E (eds), Norwell, pp. 153-175.) The mechanism of abortion of antiprogestins in this species is the initiation of labor and finally the expulsion of the conceptus. Abortifacient effects in the rat during very early pregnancy reflect inhibitory effects on nidation rather than initiation of uterine contractions. Studies in the rat model lead to “overestimation” of the potential of antiprogestins to terminate pregnancy in humans. Conversely, in the guinea pig model, irrespective of the antiprogestin doses, there were high rates of ongoing pregnancies similar to the situation in humans (Elger et al., Current Concepts in Fertility Regulation and Reproduction cited above). Furthermore, in both humans and guinea pigs, there is a strong synergism between antiprogestins and prostaglandins with respect the induction of labor (see the articles cited above and Elger W, Beier S (1983). Prostaglandine and Antigestagene für den Schwangerschaftsabbruch (Prostaglandins and antigestagens for pregnancy termination). German Patent DE 3337450 12; Van Look P, Bygdeman M (1989). Antiprogestational steroids: a new dimension in human fertility regulation. Oxford reviews of reproductive medicine 11: 2-60).

[4] = tested on: pregnant guinea pigs; test: Abortifacient / labor inducing activity in pregnant guinea pigs; type: in vivo, guinea pig; settings: for abortifacient activity ED50, guinea pig: s.c., treatment day 43-44 of pregnancy, autopsy day 50; for ranking of abortifacient activity: treated on days 43 and 44 of pregnancy, observed until day 50
Description: In the guinea pig model which allows a good prediction of the effects in humans with respect to the abortifacient activity (Elger W, Beier S., Chwalisz K, Fähnrich M, Hasan S H, Henderson D, Neef G, Rohde R (1986): Studies on the mechanism of action of progesterone antagonists. J Steroid Biochem 25: 835-845) the mesoprogestins J 867, J 912, J 956, J 1042 lead up to 100 mg/kg/day to a maximal abortion rate of 20%.
as §1
Pregnant guinea pigs were treated on days 43 and 44 of pregnancy and observed until day 50 of gestation. For the effects of various treatments see table 1 and FIG. 2. It is typical for this model that expulsions occur with a delay of several days after treatment. It can be seen that Mesoprogestins have a much reduced abortifacient activity compared to RU486. […] The differences with respect to abortifacient activity seem qualitative ones. It is not possible to overcome the low abortifacient activity of a Mesoprogestin by the use of a higher dose.
FIG. 2 is graphs showing data on the assessment on cumulative rate of abortion until day 50 in guinea pigs treated on days 43 and 44 of pregnancy.

[5] = tested on: menorrhagia; settings: women with ovulatory menorrhagia, acute administration during bleeding; cited from earlier work
[6] = biological target: T3, progesterone receptor (PR) (Oryctolagus cuniculus, UniProt P06186); test: McPhail test, PR antagonistic (antiprogestagenic) activity in estradiol-primed juvenile rabbits in the presence of progesterone; type: in vivo; settings: 4 days s.c., in the presence of progesterone 1 mg/rabbit s.c.
T3 construct: effects of PR-modulators in the uterus of estrogen primed immature rabbits (McPhail test); from tissue; host or cells: uterus (endometrium) of estradiol-primed juvenile rabbits, in vivo
T3 sequence (P06186 1-930): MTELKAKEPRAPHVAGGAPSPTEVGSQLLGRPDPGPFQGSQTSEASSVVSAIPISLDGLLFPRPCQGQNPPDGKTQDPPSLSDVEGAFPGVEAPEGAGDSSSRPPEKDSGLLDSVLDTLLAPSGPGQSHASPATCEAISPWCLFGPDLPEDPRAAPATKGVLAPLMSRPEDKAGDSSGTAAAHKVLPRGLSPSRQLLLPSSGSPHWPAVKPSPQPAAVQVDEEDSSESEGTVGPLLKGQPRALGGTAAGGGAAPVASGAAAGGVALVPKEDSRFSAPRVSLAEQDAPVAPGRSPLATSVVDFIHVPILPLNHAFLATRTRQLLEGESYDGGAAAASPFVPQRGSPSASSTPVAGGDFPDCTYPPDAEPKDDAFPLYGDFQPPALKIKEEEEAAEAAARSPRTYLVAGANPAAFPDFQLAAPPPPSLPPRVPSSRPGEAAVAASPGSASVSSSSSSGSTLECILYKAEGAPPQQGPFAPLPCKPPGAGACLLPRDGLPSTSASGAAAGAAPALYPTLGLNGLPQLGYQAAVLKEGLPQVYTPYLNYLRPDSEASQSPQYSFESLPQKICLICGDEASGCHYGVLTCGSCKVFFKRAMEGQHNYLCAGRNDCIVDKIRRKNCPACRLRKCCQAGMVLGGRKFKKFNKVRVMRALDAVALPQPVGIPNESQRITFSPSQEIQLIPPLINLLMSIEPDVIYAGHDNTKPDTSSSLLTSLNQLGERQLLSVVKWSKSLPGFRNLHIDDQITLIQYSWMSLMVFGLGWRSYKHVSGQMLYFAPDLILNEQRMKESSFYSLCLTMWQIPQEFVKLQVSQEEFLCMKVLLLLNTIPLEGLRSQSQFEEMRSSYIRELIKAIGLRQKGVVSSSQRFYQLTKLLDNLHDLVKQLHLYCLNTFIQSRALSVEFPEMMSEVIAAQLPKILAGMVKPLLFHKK
Description: The capacity of mesoprogestins to antagonize progesterone function is also tested in the McPhail test using a progesterone dose which induces a McPhail score ranging between 3 and 4.
(§2) The PR antagonistic and agonistic properties of mesoprogestins were assessed in estrogen-primed rabbits in the McPhail test according to Selye (Textbook of Endocrinology, 1947, pp. 345-346).

[7] = as described in DE 43 32 283 / DE 43 32 284; cited from earlier work
[8] = as described in DE 43 32 283 / DE 43 32 284; cited from earlier work; remark: listed apart in the source
[9] = tested on: cyclic guinea pigs; settings: cited from earlier work
[10] = biological target: T3, progesterone receptor (PR); test: McPhail test, PR agonistic (progestagenic) activity in estradiol-primed juvenile rabbits; type: in vivo, rabbit; settings: 4 days s.c. treatment, absence of progesterone
Description: In the classical bioassay, the McPhail test, assessing progestagenic and antiprogestagenic effects in rabbits (Selye H., Textbook of Endocrinology, 1947, pp. 345-346), progesterone produces a maximum McPhail score of 4 (by definition).
as §2

[11] = tested on: endometriosis; settings: women treated with danazol; cited from earlier work

## CN(C)c1ccc([C@H]2C[C@]3(C)[C@@H](CC[C@]3(O)CCCO)[C@@H]3CCC4=CC(=O)CCC4=C32)cc1 [Onapristone, reference compound]
[1]
  RBA (%) PR: 22%
[2]
  RBA (%) GR: 39%
[3]
  abortifacient activity ED50, rat: 1.71* mg/animal/day
[4]
  abortifacient activity ED50, guinea pig: ca 3 mg/animal/day

## COCC1(O)CCC2C3CCC4=CC(=O)CCC4=C3C(c3ccc(C=NO)cc3)CC21C (stereo not drawn) [J912, 4-[17β-Hydroxy-17α-(methoxymethyl)-3-oxoestra-4,9-dien-11β-yl]benzaldehyd-(1E)-oxim]
[1]
  RBA (%) PR: 162%
[2]
  RBA (%) GR: 16%
[3]
  abortifacient activity ED50, rat: 0.36 mg/animal/day
[4]
  abortifacient activity ED50, guinea pig: >100 mg/animal/day
  ranking of abortifacient activity: RU486>J956>J867, J912>J1042

## NC[C@H]1CC[C@H](C(=O)O)CC1 [tranexamic acid]
[5]
  blood loss reduction: 45%

## CC#C[C@]1(O)CC[C@H]2[C@@H]3CCC4=CC(=O)CCC4=C3[C@@H](c3ccc(N(C)C)cc3)C[C@@]21C [RU 486, mifepristone, reference compound]
[2]
  RBA (%) GR: 685%
[3]
  abortifacient activity ED50, rat: 0.98* mg/animal/day
[4]
  abortifacient activity ED50, guinea pig: 3.8 mg/animal/day
  ranking of abortifacient activity: RU486>J956>J867, J912>J1042
[6]
  dose of first antiprogestagenic effect: 0.3-1 mg/rabbit

## COC[C@]1(OC)CC[C@H]2[C@@H]3CCC4=CC(=O)CCC4=C3[C@@H](c3ccc(/C=N/OC(C)=O)cc3)C[C@@]21C [J 914, 4-[17β-Methoxy-17α-(methoxymethyl)-3-oxoestra-4,9-dien-11β-yl]benzaldehyd-(1E)-(O-acetyl)oxim]
[7]
  antiprogestagenic activity: strong
[8]
  antiglucocorticoid activity compared to RU 486: markedly reduced
[9]
  uterine weights: reduced uterine weights

## CC(=O)[C@H]1CC[C@H]2[C@@H]3CCC4=CC(=O)CC[C@]4(C)[C@H]3CC[C@]12C [Progesterone]
[10]
  dose at which progestagenic effect / endometrial transformation was observed: ≥ 0.1 mg/rabbit
  dose of maximum effect: 1 mg/rabbit
  maximum effect, McPhail score: ~4 McPhail score

## CCOC(=O)O/N=C/c1ccc([C@H]2C[C@@]3(C)[C@@H](CC[C@]3(COC)OC)[C@@H]3CCC4=CC(=O)CCC4=C32)cc1 [J 900, 4-[17β-Methoxy-17α-(methoxymethyl)-3-oxoestra-4,9-dien-11β-yl]benzaldehyd-(1E)-[O-(ethoxy)carbonyl]oxim]
[7]
  antiprogestagenic activity: strong
[8]
  antiglucocorticoid activity compared to RU 486: markedly reduced
[9]
  uterine weights: reduced uterine weights

## C#C[C@]1(O)CC[C@H]2[C@@H]3CCC4=Cc5oncc5C[C@]4(C)[C@H]3CC[C@@]21C [danazol]
[11]
  women with side effects: ≤ 85%

From US8193252B1, “Mesoprogestins (progesterone receptor modulators) for the treatment and prevention of benign hormone dependent gynecological disorders” (Bayer Pharma AG, priority 1999, dated 2012)
